According to ChEMBL document CHEMBL3228010, “Potential antitumor agents. 29. Quantitative structure-activity relationships for the antileukemic bisquaternary ammonium heterocycles” (J Med Chem, 1979):
“And” between values parts separate entries of the source, which are not always exact repeats. Equal values may be shown once.

Legend:
L1210 [1] = assay: Antitumor activity against mouse L1210 cells […] in ip dosed C3H X DBA2 F1 hybrid mouse on day 0 and dosed at LD10 level once daily on days 1 to 5 assessed as increase in life span relative to control; type: functional
Bos taurus = species on record: Bos taurus; assay: Displacement of ethidium from calf thymus DNA by fluorimetric method
Mus musculus = assay: Toxicity in ip dosed C3H X DBA2 F1 hybrid mouse […] with mouse L1210 cells on day 0 and dosed once daily on days 1 to 5 measured after 50 days; type: organism-based; conditions: in vivo, 1200 h
[2] = Lipophilic-hydrophilic balance, Rm of the compound by partition chromatography; type: physicochemical
[3] = Displacement of ethidium from poly[d(A)]-poly[d(T)] DNA (unknown origin) by fluorimetric method
[4] = Displacement of ethidium from poly[d(A-T)]-poly[d(A-T)] DNA by fluorimetric method
[5] = Displacement of ethidium from poly[d(G-C)]-poly[d(G-C)] DNA (unknown origin) by fluorimetric method
L1210 [6] = assay: Antitumor activity against mouse L1210 cells […] in ip dosed C3H X DBA2 F1 hybrid mouse on day 0 and dosed once daily on days 1 to 5 assessed as increase in life span relative to control; type: functional

Structure (SMILES)	log(ILSmax) (L1210 [1])	C50 (Bos taurus)	LD10 (Mus musculus) [mg/kg]	Rm [2]	C50 [3] [µM]	C50 [4]	C50 [5]	D40 (L1210 [6]) [mg/kg]
C[n+]1cccc(NC(=O)c2ccc(NC(=O)c3ccc(C(=O)Nc4ccc[n+](C)c4)cc3)cc2)c1.Cc1ccc(S(=O)(=O)[O-])cc1.Cc1ccc(S(=O)(=O)[O-])cc1	<1.4	11.2 µM	4	-0.11	0.325	7.7 µM	22 µM	
C[n+]1cccc(NC(=O)c2ccc(C(=O)Nc3ccc[n+](C)c3)cc2)c1.Cc1ccc(S(=O)(=O)[O-])cc1.Cc1ccc(S(=O)(=O)[O-])cc1	<1.4	61 µM	5	0	3.8	63 µM	80 µM	
C[n+]1cccc(NC(=O)c2ccc(NC(=O)c3ccc(C(=O)Nc4ccc(C(=O)Nc5ccc[n+](C)c5)cc4)cc3)cc2)c1		0.83 µM and 0.42 µM			0.13	0.79 µM and 0.41 µM	1.6 µM and 0.91 µM	
C[n+]1ccc(Nc2ccc(NC(=O)/C=C/c3ccc(/C=C/C(=O)Nc4ccc(Nc5cc[n+](C)cc5)cc4)cc3)cc2)cc1.Cc1ccc(S(=O)(=O)[O-])cc1.Cc1ccc(S(=O)(=O)[O-])cc1	1.88	0.31 µM	10	-0.7		0.11 µM	0.38 µM	5.1
C[n+]1ccc(-c2ccc(-c3ccc(-c4ccc(/N=N/Nc5ccc(C(=O)Nc6ccc(-c7ccc(-c8ccc(-c9cc[n+](C)cc9)cc8)cc7)cc6)cc5)cc4)cc3)cc2)cc1.Cc1ccc(S(=O)(=O)[O-])cc1.Cc1ccc(S(=O)(=O)[O-])cc1	2.34	0.83 µM	6	-0.22		0.1 µM	0.38 µM	1.4
COc1cc(N)cc2c(Nc3ccc(NC(=O)c4ccc(Nc5cc[n+](C)cc5)cc4)cc3)cc[n+](C)c12.Cc1ccc(S(=O)(=O)[O-])cc1.Cc1ccc(S(=O)(=O)[O-])cc1	2.33	0.31 µM	56	0.07		0.1 µM	0.61 µM	1.1
C/C(=N\NC(=N)N)c1ccc(NC(=O)c2ccc(C(=O)Nc3ccc(C(=O)Nc4ccc[n+](C)c4)cc3)cc2)cc1.Cc1ccc(S(=O)(=O)O)cc1.Cc1ccc(S(=O)(=O)[O-])cc1	1.93	0.46 µM	20	-0.53		0.3 µM	0.52 µM	8.7
C[n+]1cccc(NC(=O)c2ccc(NC(=O)c3ccc(C(=O)Nc4ccc(C(=O)Nc5ccc[n+](C)c5)cc4Cl)cc3)c(Cl)c2)c1.Cc1ccc(S(=O)(=O)[O-])cc1.Cc1ccc(S(=O)(=O)[O-])cc1	1.6	1.3 µM	50	0.36		1.3 µM	1.5 µM	50
C[n+]1cccc2ccc(NC(=O)c3ccc(-c4ccc(-c5ccc(-c6ccc(C(=O)Nc7ccc8ccc[n+](C)c8c7)cc6)cc5)cc4)cc3)cc21.Cc1ccc(S(=O)(=O)[O-])cc1.Cc1ccc(S(=O)(=O)[O-])cc1	1.85	0.17 µM	52	-0.57		0.14 µM	0.28 µM	20
Cc1cc(C(=O)Nc2ccc(C(=O)Nc3ccc[n+](C)c3)cc2)ccc1C(=O)Nc1ccc(C(=O)Nc2ccc[n+](C)c2)cc1.Cc1ccc(S(=O)(=O)[O-])cc1.Cc1ccc(S(=O)(=O)[O-])cc1	2.09	1.2 µM	14	0.06		1 µM	2.4 µM	5.7
Cc1c(C(=O)Nc2ccc(C(=O)Nc3ccc[n+](C)c3)cc2)ccc(C(=O)Nc2ccc(C(=O)Nc3ccc[n+](C)c3)cc2)c1C.Cc1ccc(S(=O)(=O)[O-])cc1.Cc1ccc(S(=O)(=O)[O-])cc1	1.65	6.9 µM	19	0.47		5.4 µM	12 µM	14.7
C[n+]1cccc(NC(=O)c2ccc(NC(=O)c3ccc(C(=O)Nc4ccc(C(=O)Nc5ccc[n+](C)c5)c(N)c4)cc3)cc2N)c1.Cc1ccc(S(=O)(=O)[O-])cc1.Cc1ccc(S(=O)(=O)[O-])cc1	2.35	0.26 µM	44	-0.75		0.12 µM	0.39 µM	2.4
C/C(=N\NC(=N)N)c1ccc(NC(=O)Nc2ccc(Nc3c4ccccc4[n+](C)c4cc(N)ccc34)cc2)cc1.Cl.[Cl-]	2.55	0.13 µM	22	0.69		0.09 µM	0.2 µM	0.3
Br.C/C(=N\NC(=N)N)c1ccc(NC(=O)c2ccc(Nc3cc[n+](C)c4ccc(N)cc34)cc2N)cc1.[Br-]	2.25	0.51 µM	40	-0.41		0.21 µM	0.78 µM	1.7
C[n+]1cccc(NC(=O)c2ccc(NC(=O)c3ccc(C(=O)Nc4ccc(C(=O)Nc5ccc[n+](C)c5)cc4)c(Cl)c3)cc2)c1.Cc1ccc(S(=O)(=O)[O-])cc1.Cc1ccc(S(=O)(=O)[O-])cc1	2.11	1 µM	30	0.05		0.95 µM	2 µM	5.6
C/C(=N\NC(=N)N)c1ccc(NC(=O)c2ccc(Nc3cc[n+](C)c4cc(N)ccc34)cc2)cc1.Cc1ccc(S(=O)(=O)O)cc1.Cc1ccc(S(=O)(=O)[O-])cc1	2.2	0.53 µM	31	-0.36		0.19 µM	1 µM	4
C[n+]1ccc(Nc2ccc(C(=O)Nc3ccc(Nc4cc[n+](C)c5cc(N)ccc45)cc3)c(N)c2)cc1.Cc1ccc(S(=O)(=O)[O-])cc1.Cc1ccc(S(=O)(=O)[O-])cc1	2.38	0.44 µM	20	-0.12		0.14 µM	0.77 µM	1.7
CC[n+]1cccc(NC(=O)c2ccc(NC(=O)c3ccc(NC(=O)c4ccc(C(=O)Nc5ccc[n+](CC)c5)cc4)cc3)cc2)c1.Cc1ccc(S(=O)(=O)[O-])cc1.Cc1ccc(S(=O)(=O)[O-])cc1	1.9	0.5 µM	33	-0.44		0.43 µM	0.65 µM	9.1
C[n+]1ccc(Nc2ccc(NC(=O)Nc3ccc(Nc4cc[n+](C)c5ccc(N)cc45)cc3)cc2)cc1.Cc1ccc(S(=O)(=O)[O-])cc1.Cc1ccc(S(=O)(=O)[O-])cc1	1.74	0.51 µM	6	0.17		0.28 µM	1.2 µM	3
C[n+]1cc(-c2ccc(NC(=O)/C=C/c3ccc(C(=O)Nc4ccc(-c5c[n+](C)c(N)nc5N)cc4)cc3)cc2)c(N)nc1N.Cc1ccc(S(=O)(=O)[O-])cc1.Cc1ccc(S(=O)(=O)[O-])cc1	2.2	0.4 µM	50	-0.62		0.11 µM	0.57 µM	10.7
Br.C/C(=N\NC(=N)N)c1ccc(C(=O)Nc2ccc(Nc3cc[n+](C)c4cc(N)ccc34)cc2)cc1.[Br-]	2.28	0.35 µM	165	-0.35		0.17 µM	0.6 µM	30
